Data published in patent publication US10584146B2, “Heme peptide materials for anti-inflammatory regenerative nanobiomedicine” (UCHICAGO ARGONNE, LLC, priority 2016, dated 2020).
Entries after “also recorded” stand apart in the source; their conditions may differ. The star is where a group is joined. Palmitoyl = CCCCCCCCCCCCCCCC(=O)*

How the values were obtained:
[1] = Peroxidase activity assay (TMB oxidation with H2O2); type: biochemical; conditions: for peroxidase activity over extended times: TMB ~300 μM, H2O2 ~300 μM, Peptide 10 μM, Heme 1 μM, HEPES pH 7; for peroxidase activity (oxidation of TMB): assemblies prepared in pH 7 HEPES (micelles), assay at pH 7, peptide 10 μM, heme 1 μM
Method: Peroxidase Activity Assay. Peroxidase activity was monitored using a Varian Cary 50 spectrophotometer and the kinetics software package. 652 nm was the chosen wavelength based on its characterization in the literature (extinction coefficient: 39,000 M−1 cm-1). In a solution of HEPES buffer, pH 7 (50 mM HEPES 100 mM NaCl), a commercially available cocktail of 3,3′,5,5′-Tetramethylbenzidine (TMB) and H2O2 (both ˜3 mM, purchased from Sigma-Aldrich) was diluted 1:10. This was monitored for 1 minute to detect any changes in the background then protein was added (prepared as above at 500 μM peptide and 50 μM heme) to a final concentration of 10 μM (1 μM Heme). The reaction was allowed to run for 15 minutes to assure completion. In the case of Michaelis-Menten analyses two stock solutions of TMB (10 mg/mL, 41.6 mM in DMSO) and peroxide (52.8 mM diluted in H2O, H2O2 stock concentration standardized by the method of Klassen et. al.) (57) were made so the concentrations could be varied de-pending on the experiment. When varying peroxide concentration TMB was at a concentration of 300 μM. Michaelis-Menten curves were fit using Origin 9.1 software to the equation (v0=kCat[E]0[S]0/(KM+[S]0)). Catalytic efficiency values (kCat/KM) were determined by fitting the linear portion of those curves to the equation (v0=(kCat/KM)[E]0[S]0). Total amount of oxidized TMB was calcu-lated by integrating the absorbance at 652 nm (done with Origin 9.1 software), and dividing that value by the extinction coefficient.
Many natural and synthetic heme proteins display peroxidase activity, a natural reaction that catalyzes the oxidation of high potential substrates using hydrogen peroxide (H2O2). Here, we employed heme-peroxidase catalysis as a benchmark reaction to investigate how supramolecular morphology in PA-Heme assemblies can control catalytic reactivity. (53) We have chosen the established protocol where H2O2 activated by the XXHeme assemblies reacts with the colorless molecule 3,3′,5,5′-tetramethylbenzidine (TMB) to yield the oxidized blue diimine product and water. (54) All of these assays were carried out in pH 7 HEPES buffer. Peptide assemblies were prepared in either pH 7 HEPES or 10.5 NH4OH and then diluted 50 fold into the reaction mixture to maintain standard reaction conditions. […] The rates of these peptides are consistent with the Michaelis-Menten enzyme kinetics model (FIGS. 19C, 19D, and 21). […] Applicants show a clear and significant dependence of peroxidase activity dependent on supramolecular morphology. […] The micelle structures offer a more dynamic assembly that allows substrate to interact with the engineered heme active site.

[2] = Spectroelectrochemistry, midpoint potential; type: physicochemical
Method: Electrochemistry. The samples were placed in a spectroecltrochemical cell (1 mm quartz) equipped with a platinum mesh working electrode, platinum wire auxiliary electrode, and a Ag/AgCl reference electrode (Basi, Inc.). […] Each applied voltage setting was allowed to equilibrate for a minimum of 20 minutes prior to UV/visible spectral acquisition (Perkin Elmer, Lambda 950, UV/vis/NIR spectrophotometer). Midpoint potential analysis was achieved by fitting a standard Boltzmann curve to the obtained data (OriginPro 9.1).

[3] = Heme titration, stoichiometry and binding constant analysis (UV/visible)
Method: FIGS. 14A-14P depict stoichiometry and binding constant analysis of peptide titrations (0-1000 μM XX in 50 μM titrants) into heme solutions (50 μM) in Hepes buffer (right) or 10 mM NH4OH (left). UV/visible spectroscopy and plots of [Peptide]/[Heme] vs. absorption (λSoret). The solid lines represent the binding constant analysis and were obtained in Origin v9.1 by applying equation 1 (FIG. 15). The following values were fixed: M=5×10^−5 M, 1=0.1 cm. All other values were permitted to float for the first round of analysis. Once n was determined, a common integer was applied to each data set within the conditions employed, e.g. n=3 for HEPES and n=6 for 10 mM NH4OH. The vertical line at x=10 marks the samples that were analyzed further by UV/vis and EPR.
FIG. 15 is the equation employed for stoichiometry and binding constant analysis; the follow variables are used: Ao, initial absorption; ϵB, extinction of bound heme; ϵs, extinction coefficient contribution from scattering; x, ratio of peptide to heme; n, set stoichiometry of peptide to heme; Kd, dissociation (binding) constant M, molar concentration of heme; l, cuvette pathlength.
Sample Preparation. Each peptide (3-4 mg) was dissolved in nanopure water (Millipore A10) to obtain a 1 wt % solution, c16-AAL3K3-CO2H (SEQ ID NO: 9) (1 wt %, 8.9 mM), c16-AHL3K3-CO2H (SEQ ID NO: 3) (1 wt %, 8.4 mM), c16-HHL3K3-CO2H (SEQ ID NO: 4) (1 wt %, 7.9 mM) and c16-MHL3K3-CO2H (SEQ ID NO: 5) (1 wt %, 8.0 mM). Hemin (Porcine, Sigma-Aldrich) was dissolved in DMSO (Sigma Aldrich) to achieve a 10 mM stock solution. Note: He-min/DMSO stock solutions were always made to ensure that the final DMSO concentration in the sam-ple was less than 1% (v/v). Typically, 38 μL of a 1 wt % stock solution was dissolved in 260 μL of ei-ther HEPES (50 mM HEPES, 100 mM NaCl pH 7.0) or 10 mM NH4OH, pH 10.5 to yield a 1 mM sample. […] Titration experiments analyzed samples that contained 50 μM Heme in either Hepes buffer or 10 mM NH4OH. […]

Row | Substance | peroxidase activity over extended times [1] | peroxidase activity (oxidation of TMB) [1] | midpoint potential (EM) vs. SHE ([2]; fibers, 10 mM NH4OH) [mV] | midpoint potential (EM) vs. SHE ([2]; micelles, HEPES) [mV] | heme binding affinity (Kd), in words ([3]; fibers, compared with micelles) | heme binding affinity (Kd), in words ([3]; micelles) | kCat, in words ([1]; micelles, pH 7)
1 | c16-AAL3K3-CO2H (Palmitoyl-AALLLKKK-OH; also: heme) [AAHeme, control peptide amphiphile without heme coordination site; XXHeme denotes the holo state (coordinated heme)] | does not appear to have any activity | not reactive | – | – | – | – | –
2 | c16-AHL3K3-CO2H (Palmitoyl-AHLLLKKK-OH; also: heme) [AHHeme, XXHeme denotes the holo state] | most initial activity | varying degrees of peroxidase activity | −655 | −315 | binding affinity actually increases | – | –
3 | c16-HHL3K3-CO2H (Palmitoyl-HHLLLKKK-OH; also: heme) [HHHeme, XXHeme denotes the holo state] | – | varying degrees of peroxidase activity; also recorded: low reactivity compared to the other peptides | −333 | −270 | – | highest binding affinity | –
4 | c16-MHL3K3-CO2H (Palmitoyl-MHLLLKKK-OH; also: heme) [MHHeme, XXHeme denotes the holo state] | most initial activity | varying degrees of peroxidase activity | −442 | −312 | decrease in heme binding affinity | – | higher kCat, than HHHeme
